Source: ChEMBL document CHEMBL1777794, “Optimization of the physicochemical and pharmacokinetic attributes in a 6-azauracil series of P2X7 receptor antagonists leading to the discovery of the clinical candidate CE-224,535” (Bioorg Med Chem Lett, 2011)

Experiments:
Plasma = assay: Fraction unbound in human plasma; format: ADME, cell-free
[1] = Cmax in rat at 5 mg/kg, po; format: ADME, organism-based; design: dose 5 mg/kg, route oral; conditions: in vivo
in vivo = conditions: rat, plasma
P2X purinoceptor 7 [2] = target: T1, P2X purinoceptor 7 (Homo sapiens, UniProt Q99572); assay: Antagonist activity at P2X7 receptor expressed in HEK293 cells assessed as inhibition of ATP-induced YOPRO-1 uptake; format: functional, cell-based
T1 sequence (Q99572 whole entry): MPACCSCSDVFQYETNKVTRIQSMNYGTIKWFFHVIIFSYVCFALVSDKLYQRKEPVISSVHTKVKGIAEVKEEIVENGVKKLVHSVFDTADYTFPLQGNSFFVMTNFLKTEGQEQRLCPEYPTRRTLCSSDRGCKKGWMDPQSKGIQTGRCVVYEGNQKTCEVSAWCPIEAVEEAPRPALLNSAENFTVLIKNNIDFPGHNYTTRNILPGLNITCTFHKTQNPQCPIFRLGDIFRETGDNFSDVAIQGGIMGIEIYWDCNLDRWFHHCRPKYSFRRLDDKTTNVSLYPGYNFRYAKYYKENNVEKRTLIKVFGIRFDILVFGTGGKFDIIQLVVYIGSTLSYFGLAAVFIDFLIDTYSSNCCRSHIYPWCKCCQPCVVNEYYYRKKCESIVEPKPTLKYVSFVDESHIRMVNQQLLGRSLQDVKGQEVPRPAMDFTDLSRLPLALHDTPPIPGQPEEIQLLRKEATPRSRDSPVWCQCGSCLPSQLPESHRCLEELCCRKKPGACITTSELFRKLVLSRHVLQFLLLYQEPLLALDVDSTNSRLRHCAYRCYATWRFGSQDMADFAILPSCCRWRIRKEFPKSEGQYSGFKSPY

Liver microsomes = assay: Metabolic stability in human liver microsomes assessed as compound turnover; format: ADME, Microsome
P2X purinoceptor 7 [3] = target: T1, P2X purinoceptor 7; assay: (§1) Antagonist activity at P2X7 receptor in human LPS-stimulated monocytes assessed as inhibition of ATP-induced IL1-beta release by ELISA in presence of human blood; format: functional, cell-based
[4] = target: T2, P2X purinoceptor 7 (Homo sapiens) (UniProt Q99572); assay: as §1; format: functional, cell-based
T2 sequence (whole entry): T1 sequence (Q99572 whole entry)

P2X purinoceptor 7 [5] = target: T1, P2X purinoceptor 7; assay: Antagonist activity at P2X7 receptor in human LPS-stimulated monocytes assessed as inhibition of ATP-induced IL1-beta release by ELISA; format: functional, cell-based
[6] = Apparent permeability from basolateral to apical side of human Caco2 cells; format: ADME, cell-based; conditions: Caco-2
[7] = Apparent permeability from apical to basolateral side of human Caco2 cells; format: ADME, cell-based; conditions: Caco-2
[8] = Plasma protein binding in human; format: ADME, cell-free; conditions: read-out: PPB
Hepatocyte = assay: Metabolic stability in human hepatocytes assessed as compound turnover; format: ADME, cell-based
[9] = target: T2, P2X purinoceptor 7 (Homo sapiens); assay: Antagonist activity at P2X7 receptor in human LPS-stimulated monocytes assessed as inhibition of ATP-induced IL1-beta release at 5 uM by ELISA; format: functional, cell-based

| IC50 (P2X purinoceptor 7 [5]) [µM] | inhibition [9] [%] | Compound | further results |
| --- | --- | --- | --- |
| 0.29 |  | O=C(NCCc1ccccc1Cl)c1cc(-n2ncc(=O)[nH]c2=O)ccc1Cl | Fu (Plasma): 0.005; Cmax [1]: 2000 ng/mL; clearance (in vivo): 9.5 mL/min/kg; IC50 (P2X purinoceptor 7 [2]): 0.3 µM; Stability (Liver microsomes): Stable; IC50 (P2X purinoceptor 7 [3]): > 10 µM; IC90 [4]: > 10 µM; Papp B→A [6]: 21 ×10⁻⁶ cm/s; Papp A→B [7]: 10 ×10⁻⁶ cm/s; fraction unbound [8]: < 0.005; Stability (Hepatocyte): Stable |
|  | 15 | O=C(NCCc1ccccn1)c1cc(-n2ncc(=O)[nH]c2=O)ccc1Cl |  |
| 0.94 |  | O=C(NCCc1ccccc1)c1cc(-n2ncc(=O)[nH]c2=O)ccc1Cl |  |
|  | 2 | CCOCCCNC(=O)c1cc(-n2ncc(=O)[nH]c2=O)ccc1Cl |  |
| 3.6 |  | CCCCCCNC(=O)c1cc(-n2ncc(=O)[nH]c2=O)ccc1Cl |  |
|  | 22 | O=C(NCCc1cccnc1)c1cc(-n2ncc(=O)[nH]c2=O)ccc1Cl |  |
|  | 22 | O=C(NCCc1ccncc1)c1cc(-n2ncc(=O)[nH]c2=O)ccc1Cl |  |

Continued, molecule first:

| Compound | IC50 (P2X purinoceptor 7 [5]) [µM] | inhibition [9] [%] | further results |
| --- | --- | --- | --- |
| CCCOCCNC(=O)c1cc(-n2ncc(=O)[nH]c2=O)ccc1Cl | > 5 |  |  |
| O=C(NCC1CCCCC1)c1cc(-n2ncc(=O)[nH]c2=O)ccc1Cl | 1.3 |  |  |
| O=C(NCC1CCCC1)c1cc(-n2ncc(=O)[nH]c2=O)ccc1Cl |  | 0 |  |
| O=C(NCC1CCOCC1)c1cc(-n2ncc(=O)[nH]c2=O)ccc1Cl | > 5 |  |  |
| COCCn1c(=O)cnn(-c2ccc(Cl)c(C(=O)NCC3(O)CCCCCC3)c2)c1=O | 0.019 |  | IC50 (P2X purinoceptor 7 [3]): 0.071 µM |
| CC(C)Cn1c(=O)cnn(-c2ccc(Cl)c(C(=O)NCC3(O)CCCCCC3)c2)c1=O | 0.034 |  | IC50 (P2X purinoceptor 7 [3]): 0.2 µM |
| CCC(CC)CNC(=O)c1cc(-n2ncc(=O)[nH]c2=O)ccc1Cl | 1.1 |  |  |
